Source: patent publication US11236106B2, “Cycloalkane-1,3-diamine derivative” (Daiichi Sankyo Company, Limited, priority 2018, dated 2022)
Counter-ions that a name gives are not always drawn. Like-named read-outs stand apart in the source and are kept apart here.

Assays:
[1] = system: MV-4-11 cells; assay: cells; conditions: Homo sapiens
Protocol: (§1) RPMI1640 medium supplemented with 10% FBS was used as a culture medium for each cells (MV-4-11, MOLM-13 cells, human AML cells, K562 cells, human CML cells). […] The prepared drug-containing plate was stored at −30° C. until use, and thawed before use.
(§2) The suspension of each cells was prepared with 10% FBS RPMI1640 culture medium so as to be 1000 cells/mL (K562) or 10000 cells/mL (MV-4-11, MOLM-13), and seeded on the drug-containing plate (40 μL/well) (day 0). The cells were cultured for additional 3 or 7 days. ATP measurement reagent (CellTiter-Glo (registered trademark, Promega Corporation) 2.0 Assay, model number G9242, Promega Corporation) was added to each well at 10 μL/well, on the day of the drug addition (day 0) and 3 days (day 3) or 7 days (day 7) after the drug addition. After affixing a black sticker on the bottom surface, the mixture was stirred using a microplate mixing deaeration machine (model name, Weltornado FK-62, Sakaki Dengyo Co., Ltd.) (stirring conditions, revolution 9, rotation 7, time 12).
(§3) The cell growth of the drug-added group from day 0 to day 3 or day 7 was calculated as T/C %, when the cell growth of the drug-free group was considered as 100%.

[2] = system: MOLM-13 cells; assay: cells; conditions: Homo sapiens
Protocol: as §1, §2, §3

[3] = biological target: T1, menin and MLL (menin, Flag tagged; biotinylated MLL1 peptide 1-46aa) (Homo sapiens, UniProt O00255); assay: biochemical
T1 sequence (O00255 1-610): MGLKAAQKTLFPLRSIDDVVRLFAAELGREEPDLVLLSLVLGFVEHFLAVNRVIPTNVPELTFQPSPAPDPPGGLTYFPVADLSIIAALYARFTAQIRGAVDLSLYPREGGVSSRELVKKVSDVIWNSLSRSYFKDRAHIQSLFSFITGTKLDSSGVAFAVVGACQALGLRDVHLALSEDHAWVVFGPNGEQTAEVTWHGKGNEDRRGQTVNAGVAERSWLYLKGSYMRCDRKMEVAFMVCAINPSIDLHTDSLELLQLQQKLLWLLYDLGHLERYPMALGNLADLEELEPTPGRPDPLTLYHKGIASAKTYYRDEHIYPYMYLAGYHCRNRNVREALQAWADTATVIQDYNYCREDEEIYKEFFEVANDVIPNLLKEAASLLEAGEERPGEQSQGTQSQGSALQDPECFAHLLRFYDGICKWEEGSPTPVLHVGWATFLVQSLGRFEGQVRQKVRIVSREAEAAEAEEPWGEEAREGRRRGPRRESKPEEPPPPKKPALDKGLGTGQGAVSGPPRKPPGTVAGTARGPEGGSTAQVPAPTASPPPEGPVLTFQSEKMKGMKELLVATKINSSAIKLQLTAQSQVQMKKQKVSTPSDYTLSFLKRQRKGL
Protocol: Then, the fluorescence signal by AlphaLISA (registered trademark, PerkinElmer Co., Ltd.) was measured using a plate reader (PerkinElmer Co., Ltd., EnVisionXcite).

[4] = system: K562 cells; assay: cells; conditions: Homo sapiens
Protocol: as §1, §2, §3

[5] = system: MLL-AF9-overexpressing AML-like cells (MA9 cells); assay: Differentiation-inducing activity in MLL-AF9-overexpressing AML-like cells (flow cytometry of Gr-1 and cKit); format: cell-based, mouse; conditions: 7 days, 5 or 20 nM (Ex. 25, 27), 150 or 300 nM (Ex. 26), 50 or 100 nM (Ex. 22); for rate of the myeloid cell differentiation antigen Gr-1-expressing cells in living cells: versus control group (FIG. 10); for rate of the cKit-expressing cells in living cells: versus control group (FIG. 11)
Protocol: The human MLL-AF9 fusion gene was introduced into cKit-positive mononuclear cells isolated from the myeloid of C57BL6 mouse, by retrovirus infection. MLL-AF9-overexpressing AML-like cells (MA9 cells) that acquired abnormal growth ability were established by liquid-culturing the cells after virus infection for a long period of time. Serum-free medium (GlutaMax, P/S, Stem Pro-34 medium containing 10 ng/ml mIL-3, ng/mL mSCF and 10 ng/mL human Oncostatin M) was used as a culture medium.
For the control group, DMSO was added thereto at a final concentration of 0.1% (2 μL/well) (day 0). After culturing for 7 days (day 7), the cells were collected, and blocked with 5% FBS/PBS containing 10% Mouse BD Fc Block (BD) for 10 minutes at room temperature, and then any of various antibodies (Gr-1-FITC or CD117 (cKit)-APC: Biolegend) was added thereto at a final concentration of 0.4 μg/sample, and the mixture was reacted on ice for 30 minutes. Then, dead cell staining dye DAPI (0.2 mg/mL) was added thereto at so as to be […], and the reaction was carried out on ice for additional 2 minutes under shading. Then, the expression level of each surface antigen of the cells was measured by NovoCyte flow cytometer (LMS). The obtained data were analyzed by FlowJo software (Becton Dickinson), and the rate of each surface antigen-expressing cells in the living cells excluding dead cells was graphed.

[6] = system: MV-4-11 cells; conditions: Exp. Ex. 3-3, oral, 31 days after transplantation
Protocol: MV-4-11 cells were purchased from ATCC. The female FOX CHASE SCID C.B.17/Icr-scid/scidJcl mice were purchased from Claire Japan. […] The compound was administered as a suspension in 0.5% MC. For the compound-free group, 0.5% MC was administered as a solvent. The estimated individual tumor volume was measured from the day of the grouping to 31 days after the transplantation (test end date).
Tumor growth inhibitory rate %=(1−TVCt/TVCc)×100 TVC=(Individual tumor volume on the test end date)−(Individual tumor volume on the grouping date) TVCt: TVC mean value of the compound administration group TVCc: TVC mean value of the compound-free group

[7] = MV4-11, 72 h, read-out: GI50 (μM) Day3 MV4;11
[8] = MV4-11, 168 h, read-out: GI50 (μM) Day7 MV4;11
[9] = MOLM-13, 72 h, read-out: GI50 (μM) Day3 MOLM-13
[10] = MOLM-13, 168 h, read-out: GI50 (μM) Day7 MOLM-13
[11] = cell free IC50 (nM), 1 nM menin, 10 nM biotinylated MLL1 peptide, AlphaLISA
[12] = K562, 72 h, read-out: GI50 (μM) Day3 K562
[13] = K562, 168 h, read-out: GI50 (μM) Day7 K562
[14] = IC50, binding inhibitory activity between menin and MLL, AlphaLISA, 1 nM menin, 10 nM biotinylated MLL1 peptide

COc1cncc(-c2ccc(CN[C@@H]3C[C@H](Nc4ncnc5sc(CC(F)(F)F)cc45)C[C@H](c4ncco4)C3)cc2)c1 (single isomer, unassigned) [Example 19A, Hydrochloride]
GI50 [1, 7]: 0.489 µM
GI50 [1, 8]: 0.295 µM
GI50 [2, 9]: 3.2 µM
GI50 [2, 10]: 0.906 µM
IC50 [3, 11]: 33.5 nM
GI50 [4, 12]: 5.51 µM
GI50 [4, 13]: 5.39 µM

COc1cncc(-c2ccc(CN[C@@H]3C[C@H](Nc4ncnc5sc(CC(F)(F)F)cc45)C[C@H](OC)C3)cc2)c1 (single isomer, unassigned) [Example 18A, Hydrochloride]
GI50 [1, 7]: 0.26 µM
GI50 [1, 8]: 0.131 µM
GI50 [2, 9]: 2.83 µM
GI50 [2, 10]: 0.448 µM
IC50 [3, 11]: 10.3 nM
GI50 [4, 12]: 5.7 µM
GI50 [4, 13]: 5.01 µM

COc1nc(N(C)[C@H]2C[C@@H](NCc3ccc(-c4cc(OC)c(OC)nn4)cc3)C[C@H]2O)c2cc(CC(F)(F)F)sc2n1 [Example 27, (1R,2S,4R)-4-({[4-(5,6-dimethoxypyridazin-3-yl)phenyl]methyl}amino)-2-{[2-methoxy-6-(2,2,2-trifluoroethyl)thieno[2,3-d]pyrimidin-4-yl](methyl)amino}cyclopentan-1-ol Hydrochloride]
IC50 [3, 11]: 1.3 nM
rate of the myeloid cell differentiation antigen Gr-1-expressing cells in living cells [5]: increased the rate of Gr-1-positive cells
rate of the cKit-expressing cells in living cells [5]: reduced the rate of cKit-positive cells

COc1cncc(-c2ccc(CN[C@H]3C[C@@H](Nc4ncnc5sc(CC(F)(F)F)cc45)C[C@@H](OC)C3)cc2)c1 (single isomer, unassigned) [Example 18B, Hydrochloride]
GI50 [1, 7]: 2.16 µM
GI50 [1, 8]: 1.47 µM
GI50 [2, 9]: 3.08 µM
GI50 [2, 10]: 3.97 µM
IC50 [3, 11]: 182 nM
GI50 [4, 12]: 5.18 µM
GI50 [4, 13]: 4.71 µM

CN(c1ncnc2sc(CC(F)(F)F)cc12)[C@H]1C[C@@H](NCc2ccc(-c3cccc4c3cnn4S(C)(=O)=O)cc2)C[C@H]1O [Example 23, (1R,2S,4R)-4-[({4-[1-(methanesulfonyl)-1H-indazol-4-yl]phenyl}methyl)amino]-2-{methyl[6-(2,2,2-trifluoroethyl)thieno[2,3-d]pyrimidin-4-yl]amino}cyclopentan-1-ol Hydrochloride]
IC50 [3, 11]: 2.8 nM
Estimated tumor volume (test end date) Mean ± S.E. ([6]; qdx17, 25 mg/kg/day): 616 ± 86
Estimated tumor volume (test end date) Mean ± S.E. ([6]; qdx17, 50 mg/kg/day): 31 ± 10
Estimated tumor volume (test end date) Mean ± S.E. ([6]; qdx17, 100 mg/kg/day): 0 ± 0

CC(N[C@H]1CC[C@@H](N(C)c2ncnc3sc(CC(F)(F)F)cc23)C1)c1ccccc1 (mixture of isomers) [Example 33, (1R,3S)-N^1-methyl-N^3-(1-phenylethyl)-N^1-[6-(2,2,2-trifluoroethyl)thieno[2,3-d]pyrimidin-4-yl]cyclopentane-1,3-diamine (diastereomer mixture)]
GI50 [1, 7]: 5.22 µM
GI50 [2, 9]: 4.82 µM
IC50 [3, 11]: 2420 nM
GI50 [4, 12]: 6.44 µM

COc1cc(-c2ccc(CN[C@H]3C[C@@H](O)[C@@H](N(C)c4ncnc5sc(CC(F)(F)F)cc45)C3)cc2)cnc1C#N [Example 22, 5-[4-({[(1R,3R,4S)-3-hydroxy-4-{methyl[6-(2,2,2-trifluoroethyl)thieno[2,3-d]pyrimidin-4-yl]amino}cyclopentyl]amino}methyl)phenyl]-3-methoxypyridine-2-carbonitrile Hydrochloride]
IC50 [3, 11]: 3.8 nM
rate of the myeloid cell differentiation antigen Gr-1-expressing cells in living cells [5]: increased the rate of Gr-1-positive cells
rate of the cKit-expressing cells in living cells [5]: reduced the rate of cKit-positive cells

COc1cncc(-c2ccc(CN[C@H]3C[C@@H](Nc4ncnc5sc(CC(F)(F)F)cc45)C[C@@H](c4ncco4)C3)cc2)c1 (single isomer, unassigned) [Example 19B, Hydrochloride]
GI50 [1, 7]: 3.18 µM
GI50 [1, 8]: 2.6 µM
GI50 [2, 9]: 4.03 µM
GI50 [2, 10]: 5.75 µM
IC50 [3, 11]: 1810 nM
GI50 [4, 12]: 5.45 µM
GI50 [4, 13]: 5.41 µM

COc1cc(-c2ccc(CN[C@H]3C[C@@H](O)[C@@H](N(C)c4ncncc4Oc4ccc(F)c(F)c4C(=O)N(C(C)C)C(C)C)C3)cc2)nnc1OC [Example 104, 6-[(4-{[(1S,2R,4R)-4-({[4-(5,6-dimethoxypyridazin-3-yl)phenyl]methyl}amino)-2-hydroxycyclopentyl](methyl)amino}pyrimidin-5-yl)oxy]-2,3-difluoro-N,N-di(propan-2-yl)benzamide hydrochloride]
GI50 ([1]; MV4-11, 72 h, read-out: GI50, cell growth inhibitory activity, MV-4-11, day 3): 0.097 µM
GI50 ([1]; MV4-11, 168 h, read-out: GI50, cell growth inhibitory activity, MV-4-11, day 7): 0.066 µM
GI50 ([2]; MOLM-13, 72 h, read-out: GI50, cell growth inhibitory activity, MOLM-13, day 3): 0.7 µM
GI50 ([2]; MOLM-13, 168 h, read-out: GI50, cell growth inhibitory activity, MOLM-13, day 7): 0.187 µM
IC50 [3, 14]: 6.3 nM
GI50 ([4]; K562, 72 h, read-out: GI50, cell growth inhibitory activity, K562, day 3): > 5 µM
GI50 ([4]; K562, 168 h, read-out: GI50, cell growth inhibitory activity, K562, day 7): > 5 µM

COc1cc(-c2ccc(CN[C@H]3C[C@@H](O)[C@@H](N(C)c4ncncc4Oc4ccc(F)cc4-c4cncnc4C(C)C)C3)cc2)nnc1OC [Example 100, (1R,2S,4R)-4-({[4-(5,6-dimethoxypyridazin-3-yl)phenyl]methyl}amino)-2-[(5-{4-fluoro-2-[4-(propan-2-yl)pyrimidin-5-yl]phenoxy}pyrimidin-4-yl)(methyl)amino]cyclopentan-1-ol hydrochloride]
IC50 [3, 14]: 2.5 nM

CN(c1ncnc2sc(CC(F)(F)F)cc12)[C@H]1C[C@@H](NCc2ccc(-c3cncc4c3cnn4C)cc2)C[C@H]1O [Example 72, (1R,2S,4R)-4-({[4-(1-methyl-1H-pyrazolo[3,4-c]pyridin-4-yl)phenyl]methyl}amino)-2-{methyl[6-(2,2,2-trifluoroethyl)thieno[2,3-d]pyrimidin-4-yl]amino}cyclopentan-1-ol hydrochloride]
IC50 [3, 14]: 10.7 nM

COc1cc(-c2ccc(CN[C@H]3C[C@@H](O)[C@@H](N(C)c4ncnc5sc(CC(F)(F)F)cc45)C3)cc2)nnc1N1CCC1 [Example 105, (1R,2S,4R)-4-[({4-[6-(azetidin-1-yl)-5-methoxypyridazin-3-yl]phenyl}methyl)amino]-2-{methyl[6-(2,2,2-trifluoroethyl)thieno[2,3-d]pyrimidin-4-yl]amino}cyclopentan-1-ol hydrochloride]
IC50 [3]: 8 nM

COCc1cc2c(N(C)[C@@H]3CC[C@H](NCc4ccc(-c5cncc(OC)c5)cc4)C3)ncnc2s1 [Example 47, (1R,3S)-N^1-[6-(methoxymethyl)thieno[2,3-d]pyrimidin-4-yl]-N^3-{[4-(5-methoxypyridin-3-yl)phenyl]methyl}-N^1-methylcyclopentane-1,3-diamine hydrochloride]
IC50 [3, 11]: 97.2 nM

CCOc1cc(-c2ccc(CN[C@H]3C[C@@H](O)[C@@H](N(C)c4ncnc5sc(CC(F)(F)F)cc45)C3)cc2)cnc1OC [Example 80, (1R,2S,4R)-4-({[4-(5-ethoxy-6-methoxypyridin-3-yl)phenyl]methyl}amino)-2-{methyl[6-(2,2,2-trifluoroethyl)thieno[2,3-d]pyrimidin-4-yl]amino}cyclopentan-1-ol hydrochloride]
IC50 [3]: 15.4 nM
